Experiments:
[1] = Antineuroinflammatory activity in […] cells assessed as inhibition of LPS-induced NO production after 24 hrs in presence of LPS by Griess reaction; assay type: functional, cell-based; details: BV-2, 24 h
[2] = Cytotoxicity against LPS-activated human BV2 cells assessed as cell viability at 1 uM after 24 hrs by MTT assay (reference value: 98.03 to 98.84%); assay type: toxicity, cell-based, Mus musculus, BV-2; details: read-out: Activity
[3] = Cytotoxicity against LPS-activated […] cells assessed as cell viability at 10 uM after 24 hrs by MTT assay (reference value: 98.03 to 98.84%); assay type: toxicity, cell-based, Mus musculus, BV-2; details: read-out: Activity
[4] = Cytotoxicity against LPS-activated […] cells assessed as cell viability at 30 uM after 24 hrs by MTT assay (reference value: 98.03 to 98.84%); assay type: toxicity, cell-based, Mus musculus, BV-2; details: read-out: Activity
[5] = Cytotoxicity against LPS-activated human BV2 cells assessed as cell viability at 100 uM after 24 hrs by MTT assay (reference value: 98.03 to 98.84%); assay type: toxicity, cell-based, Mus musculus, BV-2; details: read-out: Activity

| SMILES | IC50 [1] [µM] | viability at 24 h, 1 µM [2] [%] | viability at 24 h, 10 µM [3] [%] | viability at 24 h, 30 µM [4] [%] | viability at 24 h, 100 µM [5] [%] |
| --- | --- | --- | --- | --- | --- |
| COc1cc([C@H]2OC[C@H]3[C@@H]2CO[C@@H]3c2cc(OC)c(O[C@@H]3O[C@H](CO)[C@@H](O)[C@H](O)[C@H]3O)c(OC)c2)cc(OC)c1O | 3.08 | 92.9 | 87.4 | 95.4 | 94.4 |
| COc1cc(CO)cc(OC)c1O[C@@H]1O[C@H](CO)[C@@H](O)[C@H](O)[C@H]1O | > 100 | 91.1 | 94.7 | 90.7 | 87 |
| O=C(O)/C=C\c1ccc(O[C@@H]2O[C@H](CO)[C@@H](O)[C@H](O)[C@H]2O)cc1 | > 100 | 90.9 | 95.4 | 93 | 90 |
| COc1cc([C@@H]2OC[C@H]3[C@@H]2CO[C@@H]3c2cc(OC)c(O[C@@H]3O[C@H](CO)[C@@H](O)[C@H](O)[C@H]3O)c(OC)c2)cc(OC)c1O | > 100 | 92.4 | 91.6 | 102 | 100 |
| COc1cc([C@@H]2OC[C@H]3[C@@H]2CO[C@H]3c2cc(OC)c(O[C@@H]3O[C@H](CO)[C@@H](O)[C@H](O)[C@H]3O)c(OC)c2)cc(OC)c1O[C@@H]1O[C@H](CO)[C@@H](O)[C@H](O)[C@H]1O | > 100 | 100 | 97.5 | 100 | 94.9 |
| COc1cc(/C=C/C(=O)O)cc(OC)c1O[C@@H]1O[C@H](CO)[C@@H](O)[C@H](O)[C@H]1O | > 100 | 94.5 | 96.3 | 93.1 | 95.6 |
| C[C@@H]1O[C@@H](OC[C@H]2O[C@@H](Oc3c(-c4cc(O)c(O)c(O)c4)oc4cc(O)cc(O)c4c3=O)[C@H](O)[C@@H](O)[C@@H]2O)[C@H](O)[C@H](O)[C@H]1O | 74.7 | 92.2 | 87.1 | 86 | 86.9 |
| Oc1cc(O)c2c(c1)O[C@]1(c3ccc(O)c(O)c3)Oc3cc(O)c4c(c3[C@H]2[C@@H]1O)O[C@@]1(c2ccc(O)c(O)c2)Oc2cc(O)c3c(c2[C@@H]4[C@H]1O)O[C@@H](c1ccc(O)c(O)c1)[C@H](O)C3 | > 100 | 94.4 | 97.3 | 104 | 112 |
| O=C(O)/C=C/c1ccc(O[C@@H]2O[C@H](CO)[C@@H](O)[C@H](O)[C@H]2O)cc1 | 9.08 | 101 | 98.4 | 101 | 94.7 |
| O=c1c(O[C@@H]2O[C@H](CO)[C@@H](O)[C@H](O)[C@H]2O[C@@H]2O[C@H](CO)[C@@H](O)[C@H](O)[C@H]2O)c(-c2ccc(O)c(O)c2)oc2cc(O)cc(O)c12 | > 100 | 84.5 | 87.7 | 96.5 | 108 |
| C[C@@H]1O[C@@H](Oc2c(-c3cc(O)c(O)c(O)c3)oc3cc(O)cc(O)c3c2=O)[C@H](O)[C@H](O)[C@H]1O | > 100 | 97.9 | 99.5 | 99.3 | 107 |
| Oc1cc(O)c2c(c1)O[C@H](c1ccc(O)c(O)c1)[C@H](O)C2 [(-)-EPICATECHIN] | 47.4 | 84.4 | 87.6 | 88 | 93.2 |
| Oc1cc(O)c2c(c1)O[C@H](c1ccc(O)c(O)c1)[C@@H](O)C2 [CIANIDANOL] | 9.52 | 81.5 | 88.3 | 102 | 117 |
| Oc1cc(O)c2c(c1)O[C@H](c1cc(O)c(O)c(O)c1)[C@H](O)C2 [EPIGALLOCATECHIN] | > 100 | 95.3 | 96.4 | 100 | 94.6 |
| Oc1cc(O)c2c(c1)O[C@H](c1cc(O)c(O)c(O)c1)[C@@H](O)C2 [GALLOCATECHIN] | > 100 | 89.5 | 94.2 | 89.5 | 82.6 |
| O=c1c(O[C@@H]2O[C@H](CO)[C@@H](O)[C@H](O)[C@H]2O)c(-c2ccc(O)c(O)c2)oc2cc(O)cc(O)c12 [ISOQUERCETIN] | 13.4 | 101 | 98.4 | 87.7 | 85.2 |
| CN(C)c1ccc(O)c2c1C[C@H]1C[C@H]3[C@H](N(C)C)C(O)=C(C(N)=O)C(=O)[C@@]3(O)C(O)=C1C2=O [MINOCYCLINE] | 37 |  |  |  |  |
| O=c1c(O)c(-c2cc(O)c(O)c(O)c2)oc2cc(O)cc(O)c12 [MYRICETIN] | > 100 | 97.7 | 98.4 | 109 | 116 |
| COc1cc(-c2oc3cc(O)cc(O)c3c(=O)c2O[C@@H]2O[C@H](CO[C@@H]3O[C@@H](C)[C@H](O)[C@@H](O)[C@H]3O)[C@@H](O)[C@H](O)[C@H]2O)ccc1O [NARCISSIN] | > 100 | 95.1 | 89.5 | 88.7 | 88.8 |
| C[C@@H]1O[C@@H](OC[C@H]2O[C@@H](Oc3c(-c4ccc(O)cc4)oc4cc(O)cc(O)c4c3=O)[C@H](O)[C@@H](O)[C@@H]2O)[C@H](O)[C@H](O)[C@H]1O [NICOTIFLOROSIDE] | 88 | 98.7 | 110 | 92.1 | 113 |
| O=c1c(O)c(-c2ccc(O)c(O)c2)oc2cc(O)cc(O)c12 [QUERCETIN] | 39.5 | 87.5 | 90.7 | 96.9 | 99.7 |
| C[C@@H]1O[C@@H](Oc2c(-c3ccc(O)c(O)c3)oc3cc(O)cc(O)c3c2=O)[C@H](O)[C@H](O)[C@H]1O [QUERCITRIN] | > 100 | 92 | 91 | 99.3 | 96.5 |
| C[C@@H]1O[C@@H](OC[C@H]2O[C@@H](Oc3c(-c4ccc(O)c(O)c4)oc4cc(O)cc(O)c4c3=O)[C@H](O)[C@@H](O)[C@@H]2O)[C@H](O)[C@H](O)[C@H]1O [RUTIN] |  | 97.2 | 94.6 | 91 | 95 |
